What was measured:
NCI-H226 cells = test: Viability assay in NCI-H226 (Yap-dependent) cells, CyQUANT; format: cell-based; details: Homo sapiens, 96 hour incubation
YAP-TEAD interaction = test: SK-HEP-1 reporter assay (8x TEAD responsive elements driving NanoLuc luciferase); format: cell-based; details: Homo sapiens, SK-HEP1; SK-HEP-1 TEAD-NanoLuc reporter cells, 24 hour incubation, luciferase readout
Procedure, shortened: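 SK-HEP-1 cells carrying stable 8× TEAD-element NanoLuc reporter, treated in duplicate with 10-point doses (top 30 μM final, 0.3% DMSO) for 24 h at 37 °C. Luciferase activity read by NanoGlo luminescence; IC50 values derived.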

SW620 Yap KO cells = test: Viability assay in SW620 Yap KO (Yap independent) cells, CyQUANT; format: cell-based; details: Homo sapiens, SW-620, SW620 YAP/TAZ knock-out (YAP independent) cells, 96 hour incubation
Procedure: The ability of YAP-TEAD inhibitors to inhibit tumor cell growth was evaluated using two different cell lines: NCI-H226, which is a YAP dependent cell line, and SW620 cells, where YAP and TAZ were knocked out using CRISPR to generate a YAP independent cell line.
For the assay, cells were treated in duplicates with the test compounds in a 10-point dose, 1:3 dilution steps, with the top concentration starting at 30 μM (final concentration in assay). After a 96 hour incubation at 37° C., 95% rH, and 5% CO2, a cell-permeant DNA-binding dye that stains only healthy cells (CyQUANT®, Promega) was added to the cells, allowing the quantification of cell viability.
Cell Media: The NCI-H226 cells were cultured in the following media: RPMI 1640, +10% FBS, +1× GlutaMAX, +10 mM HEPES, +0.5% Pen/Strep. The SW620-KO cells were cultured in the following media: DMEM/F-12, +10% FBS, +1× GlutaMAX, +10 mM HEPES, +0.5% Pen/Strep.
Reagents: The reagents used are listed below:
Cell culture: The cells were examined using an inverted microscope to check for health, cell density, etc. To dissociate adherent cells, the monolayer of cells was washed once with pre-warmed PBS. After removing the PBS, 3 ml pre-warmed Accutase was added to a F75 flask, dispersed evenly and the flask was allowed to sit in incubator for ˜4-5 minutes.
When a single cell suspension was obtained, 7 ml of prewarmed growth media was added and resuspended with the cells. The cell suspension was transferred to a sterile 15 ml conical centrifuge tube, and spun for 5 min at 300×g, RT. The supernatant was discarded and the pellet was resuspended in 10 ml of pre-warmed growth media.
The total cell count was determined, and 20 μl of the desired cell number was added to each well of a 384 well plate using a Multidrop Combi. The plates were then incubated for 24 hours at 37° C., 95% rH, and 5% CO2.
Compound treatment: 24 hours after seeding, the cells were treated with compounds.
A 1:333 dilution of compounds, diluted in DMSO, was made to get a final concentration of 0.3% DMSO per well. To transfer the compounds to the assay plate, 120 nl was shot from Labcyte low dead volume plates to the cell plates containing 20 μl media/well with the ECHO 555 liquid handling system.
After treatment, the cells were fed with 20 μl fresh pre-warmed assay media using a Multidrop combi.
The assay plates were then incubated for 96 h at 37° C., 95% rH, and 5% CO2.
96h after treatment 30 μl of CyQuant® reagent was added to the assay plates using a Multidrop combi in the dark. The plates were then incubated for 1 hour at 37° C., 95% rH and 5% CO2. Thereafter, the assay plates were removed from the incubator and allowed to equilibrate to RT for 30 min in the dark without lid. Finally, they were measured using an EnVision microplate reader with a FITC bottom read program.
Experimental data in the Viability assay of the compounds shown in Table 1 are shown in Table 3 below and classified in the following groups: […]

SMILES	IC50 (NCI-H226 cells)	IC50 (YAP-TEAD interaction)	IC50 (SW620 Yap KO cells)	melting point
CNC(=O)c1ccc2c(c1)c1nc(C)ccc1n2-c1ccc(C(F)(F)F)cc1 [Compound 22, N,2-dimethyl-5-[4-(trifluoromethyl)phenyl]-5H-pyrido[3,2-b]indole-8-carboxamide]	0.001 to 0.1 µM	10 to 100 nM	> 10 µM	134 to 136 °C
CNC(=O)c1ccc2c(c1)c1nc(OC)ccc1n2-c1ccc(C(F)(F)F)cc1 [Compound 27, 2-methoxy-N-methyl-5-[4-(trifluoromethyl)phenyl]-5H-pyrido[3,2-b]indole-8-carboxamide]	0.001 to 0.1 µM	10 to 100 nM	> 10 µM	180 to 182 °C
CNC(=O)c1ccc2c(c1)c1cc(C(C)C)ccc1n2-c1ccc(C(F)(F)F)cc1 [Compound 28, N-methyl-6-(propan-2-yl)-9-[4-(trifluoromethyl)phenyl]-9H-carbazole-3-carboxamide]	0.1 to 1 µM	10 to 100 nM	1 to 10 µM	141 to 142 °C
